Assay results published in patent publication US20260306463A1, “SIK INHIBITORS TO TREAT CHRONIC KIDNEY DISEASE” (The General Hospital Corporation, priority 2023, published 2026).

How the values were obtained:
[1] = system: kidney; details: literature (ref. 21); cited from earlier work
[2] = system: human kidney organoids; experiment: cisplatin injury of human kidney organoids: immunostaining, organoid size; format: cell-based; details: intermittent cisplatin, 5 treatments
Method: FIG. 7. SK-124 preserves human kidney organoid integrity in cisplatin injury model. Human kidney organoids derived from H9 embryonic stem cells were treated with intermittent cisplatin (5 separate treatments) based on published protocols along with the indicated agent. Organoids were cryo-sectioned and immuno-stained with the indicated markers. The top panels show low power images and the bottom panels focus on regions of proximal tubule cells. The graph measures the mean diameter of organoids in the control (no cisplatin), cisplatin+DMSO, and cisplatin+SK-124 treatment groups.
BJFF human induced pluripotent stem cells (hPSCs) were maintained on Geltrexcoated (Thermo Fisher Scientific) plates using StemFit Basic04 Complete (Ajinomoto Co. Inc.) as previously reported(25). The cells were passaged weekly using Accutase (STEMCELL Technologies) for dissociation and Y27632 (Tocris) for adhesion. Directed differentiation of hPSCs into kidney organoids has been published elsewhere (29). Briefly, hPSCs were differentiated into metanephric mesenchyme cells on day 8 by a three-step directed differentiation protocol. Metanephric mesenchyme was transferred into suspension culture in 96-well ultralow adhesion plates (Coming) and further differentiated into kidney organoids, as previously reported(25). Quality control measures of SIX2 immunostaining on day 8 of differentiation and CDH1, LTL, PODXL, CD146, MEIS1/2/3, and SYTOX-blue staining on day 21 were performed on all batches of kidney organoids to limit batch-to-batch heterogeneity. Kidney organoids were maintained in 200 μl of basal media consisting of Advanced RPMI (Thermo Fisher Scientific) and GlutaMAX (Thermo Fisher Scientific) in 96-well plates, as previously reported. Media changes were conducted three times weekly with removal of 90 [l and addition of 100 μl of fresh basal media.
For cisplatin induced injury, day 49 organoids were treated with 5 μM cisplatin in basal media after full media change. After 24 hours, full media exchanges were performed. This 24-hour treatment was performed twice a week, on day 52-53, day 56-57, day 59-60, and day 63-64 as well, for a total of five cisplatin treatments. Samples were obtained for RT-qPCR and immunostaining immediately following each 24-hour treatment with cisplatin, and from corresponding controls.
Following the treatment, the organoids were collected and immediately fixed in 4% PFA in PBS for 1 hour at room temperature, submerged in 30% sucrose overnight at 4° C., then embedded in O.C.T. Compound (4585. Fisher HealthCare). Subsequently, […] frozen sections were prepared via cryo-sectioning by a cryostat. After 1 hr blocking at room temperature, the sections were treated overnight at 4° C. with primary antibodies in antibody dilution buffer (ADB) with biotinylated LTL (1:200, B-1325, Vector), rat anti-CDH1 (1:500, ab11512, Abcam), goat anti-PODXL (1:500, AF1658, R&D Systems), as well as the antibody of interest, either mouse anti-p21 (1:200, NBP2-43697, Novus Biologicals), or rabbit anti-γH2AX (1:100, 2577, Cell Signaling) antibodies. For the optimum labeling of LTL by biotin/streptavidin interaction, the Streptavidin/Biotin Blocking Kit (SP-2002, Vector Laboratories) was applied according to the manufacturer's instructions. After washing, the samples were stained for 1 hour at RT with the nuclear dye-SYTOX Blue (1:500. S 11348, Invitrogen) and the corresponding secondary antibodies in ADB such as streptavidin-AF750 (1:500, S21384, Invitrogen), donkey anti-rat IgG-AF594 (1:500, A21209, Invitrogen), donkey anti-goat IgG-AF555 (1:500, A21432, Invitrogen), and donkey anti-rabbit IgG-AF488 (1:500, A21206, Invitrogen) for γH2AX or donkey anti-mouse IgG-AF488 (1:500, A21202, Invitrogen) for p21 antibodies as well as mouse anti-Meisl/⅔ (1:200, sc-101850, SantaCruz) conjugated antibody, and slides were mounted with Vectashield antifade mounting medium (H1000, Vector Laboratories). […]

[3] = system: YAP/TAZ responsive reporter; experiment: YAP/TAZ responsive luciferase reporter assay; format: cell-based, mouse (NIH3T3 cells); details: 24 hours; for TGFß-stimulated YAP/TAZ reporter activity: TGFß stimulation
Method: FIGS. 14A-14E. SIK pathway controls YAP/TAZ-dependent myofibroblast activation in kidney Gli1 cells. KGlil cells were treated as indicated for 48 hours followed by (A) immunoblotting and (B) RT-qPCR. (C) KGlil cells were treated±TGFß (5 ng/mL) or verteporfin (1 μM) for 48 hours followed by imnunoblotting. (D) Luciferase assay from cells were transfected with a YAP/TAZ responsive reporter. SIK inhibitor and forskolin both block basal and TGFß-stimulated-YAP/TAZ reporter activity. (E) Top, KGlil cells were treated for 24 hours as indicated followed by immunoblotting. Bottom, kidney lysates from adenine diet CKD mice were analyzed by immunoblotting as indicated.
To assess the signal of YAP/TAZ responsive reporter, the mouse fibroblast cell line NIH3T3 cells were transfected 24 hours after plating at 50,000 cells/ml in a 10 cm dish by using 15 μl Polyjet transfection reagent (SignaGen Laboratories, SL100688) and 5 μg of 8xGTIIC-luciferase construct. 48 hours after, the cells were then trypsinized and plated on a black 96-well plate and treated the next day for 24 hours. The luciferase and renilla signals were read using Renilla Luciferase Assay System kit (Promega, E2810) and EnVision plate reader (PerkinElmer).

| Compound | anti-fibrotic effects in kidney [1] | patterns of cisplatin-induced injury [2] | basal YAP/TAZ reporter activity [3] | TGFß-stimulated YAP/TAZ reporter activity [3] |
| --- | --- | --- | --- | --- |
| C=C1/C(=C\C=C2/CCC[C@]3(C)[C@@H]([C@H](C)CCCC(C)(C)O)CC[C@@H]23)C[C@@H](O)C[C@@H]1O [calcitriol, 1,25-dihydroxy-vitamin D, reference compound] | anti-fibrotic effects in kidney | minimal effects | – | – |
| 2-[2,6-Dimethoxy-4-[7-(1-methylpyrazol-4-yl)imidazo[1,2-a]pyridin-3-yl]phenyl]-5-ethyl-1,3,4-oxadiazole [SK-124] | – | – | block | block |
| C=C[C@@]1(C)CC(=O)[C@]2(O)[C@@]3(C)[C@@H](O)CCC(C)(C)[C@@H]3[C@H](O)[C@H](OC(C)=O)[C@@]2(C)O1 [forskolin, reference compound] | – | – | block | block |
